Like-named read-outs stand apart in the source and are kept apart here.

Assay type in all cases: cell-based
In one assay the test system is DENV2 replicon. The assay is described as follows: DENV-2 Huh-7 Rep EC50 (replicon luminescence). Particulars: read-out: DENV-2 Huh-7 Rep EC50. Put shortly: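 Huh-7 cells carrying a DENV2 replicon, 5,000 cells/well, were incubated with dosed compounds for 48 h at 37° C. EnduRen live-cell substrate was added 1.5 h before luminescence reading. EC50 came from dose-response against DMSO-only wells.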
(A replicon is a self-replicating genome or part of one, used to study replication in cells.)

A further assay deals with HRV16. Description: HRV16 HELA EC50 (cytopathic effect in H1-HeLa cells). Put shortly:
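H1-HeLa cells seeded one day before, given 3-fold serial compound dilutions in triplicate just prior to infection with pre-titrated virus. Incubated 96 h at 33 °C/5% CO2; protection from cytopathic effect read as viability by CellTiter-Glo luminescence, normalised to infected untreated (0%) and uninfected (100%) controls.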
For orientation: Protection from cytopathic effect is a common read-out in antiviral testing.

A further assay deals with RSV strain A2. The assay is described as follows: RSV HEp-2 EC50 (infectious cytopathic cell protection assay). Particulars: HEp-2 cells, RSV A2, 4 days, read-out: RSV HEp-2 EC50. Put shortly: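 HEp-2 cells mixed with titered RSV A2 at 50,000 cells/ml were added to plates holding 3-fold serial compound dilutions in DMSO, then incubated 4 days at 37° C. Cytoprotection was read as cell viability by CellTiter-Glo luminescence and converted to percent inhibition against 0% and 100% inhibition controls.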

Another assay deals with RSV A2. The assay is described as follows: RSV NHBE EC50 (RSV A2 antiviral assay in normal human bronchial epithelial cells). Particulars: NHBE cells, RSV A2, 4 days, read-out: RSV NHBE EC50.
Where [1] appears, read: Dengue virus, DENV2, Huh-7, 48 h, Huh-7 replicon cells, 48 hours.
[2] abbreviates: 96 h, H1-HeLa cells, 33° C., read-out: HRV16 HELA EC50.
Where [3] appears, read: human respiratory syncytial virus, HEp-2, 96 h.
[4] abbreviates: human respiratory syncytial virus, NHBE, 96 h.
The mark [5] stands for this setting: Dengue virus, DENV2, Huh-7, 48 h.
Where [6] appears, read: H1-HeLa cells, 96 h, 33° C.; read-out: HRV16 HELA EC50.
[7] abbreviates: human respiratory syncytial virus, 96 h.

`CC(C)OC(=O)C[C@H](C)NP(=O)(OC[C@@]1(C#N)O[C@@H](c2ccc3c(N)ncnn23)[C@H](O)[C@@H]1O)Oc1ccccc1` (stereo partly drawn) [Example 99, (3S)-isopropyl 3-(((((2R,3S,4R,5S)-5-(4-aminopyrrolo[2,1-f][1,2,4]triazin-7-yl)-2-cyano-3,4-dihydroxytetrahydrofuran-2-yl)methoxy)(phenoxy)phosphoryl)amino)butanoate]: the EC50 with DENV2 replicon (setting [1]) was greater than 50 µM; in the assay with HRV16 (setting [2]), greater than 50 µM; with RSV strain A2 (setting [3]), greater than 50 µM; in the assay on RSV A2 (setting [4]), greater than 5 µM.

With `CCC(CC)COC(=O)[C@H](C)NP(=O)(N[C@@H](C)C(=O)OC)OC[C@@]1(C#N)O[C@@H](c2ccc3c(N)ncnn23)[C@H](O)[C@@H]1O` (mixture of isomers) [Example 221, 2-Ethylbutyl ((((2R,3S,4R,5S)-5-(4-aminopyrrolo[2,1-f][1,2,4]triazin-7-yl)-2-cyano-3,4-dihydroxytetrahydrofuran-2-yl)methoxy)(((S)-1-methoxy-1-oxopropan-2-yl)amino)phosphoryl)-L-alaninate], the EC50 in the assay with DENV2 replicon (setting [5]) is greater than 100 µM; in the assay on HRV16 (setting [6]) it was 8.49 µM; with RSV strain A2 (setting [7]), 1.18 µM; in the assay with RSV A2 (setting [7]), greater than 1.05 µM.

As for `CC[C@H](NP(=O)(OC[C@@]1(C#N)O[C@@H](c2ccc3c(N)ncnn23)[C@H](O)[C@@H]1O)Oc1ccccc1)C(=O)OC1CCCC1` (single isomer, unassigned) [Example 111], the EC50 with DENV2 replicon (setting [1]) was greater than 50 µM; in the assay on HRV16 (setting [2]) it was 25.3 µM; in the assay on RSV strain A2, 3.97 µM; with RSV A2, greater than 1.48 µM.

`C[C@H](NP(=O)(OC[C@@]1(C#N)O[C@@H](c2ccc3c(N)ncnn23)[C@H](O)[C@@H]1O)Oc1ccccc1)C(=O)O[C@@H](C)C(N)=O` (some centres unmarked) [Example 160]: the EC50 was greater than 50 µM in the assay on DENV2 replicon (Huh-7 replicon cells, 48 hours); 29.1 µM with HRV16 (setting [6]); 7.3 µM with RSV strain A2; greater than 5 µM with RSV A2.

As to `CC(C)OC(=O)[C@H](C)N[P@](=O)(OC[C@@]1(C#N)O[C@@H](c2ccc3c(N)ncnn23)[C@H](O)[C@@H]1O)Oc1ccccc1` (single isomer, unassigned) [Example 1], the EC50 with DENV2 replicon (setting [1]) is greater than 50 µM; in the assay on HRV16 (setting [2]), 0.966 µM; in the assay on RSV strain A2 (setting [3]), 0.342 µM; in the assay with RSV A2 (setting [4]) it was 0.879 µM.

With `C[C@H](NP(=O)(OC[C@@]1(C#N)O[C@@H](c2ccc3c(N)ncnn23)[C@H](O)[C@@H]1O)Oc1ccccc1)C(=O)OC1CCCC1` (stereo partly drawn) [Example 108, (2S)-cyclopentyl 2-(((((2R,3S,4R,5S)-5-(4-aminopyrrolo[2,1-f][1,2,4]triazin-7-yl)-2-cyano-3,4-dihydroxytetrahydrofuran-2-yl)methoxy)(phenoxy)phosphoryl)amino)propanoate], the EC50 in the assay on DENV2 replicon (setting [1]) turned out to be 40.8 µM; in the assay with HRV16 (setting [2]), 0.289 µM; in the assay with RSV strain A2 (setting [3]) it was 0.147 µM; with RSV A2 (setting [4]) it was 0.239 µM.

On to `N#C[C@@]12COP(=O)(OC3CCCC3)O[C@H]1[C@@H](O)[C@H](c1ccc3c(N)ncnn13)O2` (stereo partly drawn) [Example 161, (4aR,6S,7S,7aS)-6-(4-aminopyrrolo[2,1-f][1,2,4]triazin-7-yl)-2-(cyclopentyloxy)-7-hydroxydihydro-4H-furo[3,2-d][1,3,2]dioxaphosphinine-4a(6H)-carbonitrile 2-oxide], for which the EC50 in the assay on DENV2 replicon (setting [5]) is greater than 50 µM; in the assay on HRV16 (setting [6]), 13.8 µM; with RSV strain A2 (setting [7]), 6.48 µM; in the assay with RSV A2 (setting [7]), 1.49 µM.

As to `CC[C@H](NP(=O)(OC[C@@]1(C#N)O[C@@H](c2ccc3c(N)ncnn23)[C@H](O)[C@@H]1O)Oc1ccccc1)C(=O)OC1CCCC1` (stereo partly drawn) [Example 109, (2S)-cyclopentyl 2-(((((2R,3S,4R,5S)-5-(4-aminopyrrolo[2,1-f][1,2,4]triazin-7-yl)-2-cyano-3,4-dihydroxytetrahydrofuran-2-yl)methoxy)(phenoxy)phosphoryl)amino)butanoate], the EC50 with DENV2 replicon (setting [1]) was greater than 50 µM; in the assay on HRV16 (setting [2]) it was 2.49 µM; in the assay on RSV strain A2 (setting [3]) it was 1.07 µM; in the assay with RSV A2 (setting [4]), 0.452 µM.

Broadly, the EC50 is the concentration that produces a half-maximal response.

The values are drawn from patent publication US20230295201A1 (Gilead Sciences, Inc., priority 2020, published 2023).
